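Briefly, cells in 96-well plates were exposed to five compound concentrations for 48 h, and endpoints were estimated by linear interpolation. GI50 is the concentration that inhibits growth by half. Definition used: TGI = concentration required for complete inhibition of growth.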
Tests used:
Test in all cases: NCI-60 cell line screen, 48 h
[1] = system: RPMI-8226 leukemia
[2] = system: SW-620 colon
[3] = system: HCT-116 colon
[4] = system: MDA-MB-468 breast
[5] = system: 786-0 renal
[6] = system: NCI/ADR-RES ovarian
[7] = system: EKVX NSCLC
[8] = system: SK-MEL-2 melanoma
[9] = system: SN12C renal
[10] = system: MOLT-4 leukemia
[11] = system: SK-MEL-28 melanoma
[12] = system: MDA-MB-231 breast
[13] = system: SK-OV-3 ovarian
[14] = system: HT29 colon
[15] = system: M14 melanoma
[16] = system: ACHN renal
[17] = system: CAKI-1 renal
[18] = system: LOX IMVI melanoma
[19] = system: UACC-62 melanoma
[20] = system: MDA-MB-435
[21] = system: A498 renal
[22] = system: SF-539 CNS
[23] = system: UACC-257 melanoma
[24] = system: SF-268 CNS
[25] = system: OVCAR-4 ovarian
[26] = system: COLO 205 colon
[27] = system: U251 CNS
[28] = system: NCI-H226 lung
[29] = system: SR leukemia
[30] = system: HS 578T breast

O=C(N/C(=C1/OCCN1Cc1ccccc1)[P+](c1ccccc1)(c1ccccc1)c1ccccc1)c1ccccc1
TGI [1]: 3.94 µM
GI50 [2]: 4.51 µM
TGI [2]: 17.1 µM
GI50 [3]: 3.09 µM
TGI [3]: 12.9 µM
GI50 [4]: 1.45 µM
TGI [4]: 5.68 µM
GI50 [5]: 10.7 µM
TGI [5]: 23.8 µM
GI50 [6]: > 100 µM
TGI [6]: > 100 µM
GI50 [7]: 3.63 µM
TGI [7]: 12.2 µM
GI50 [8]: 2.36 µM
TGI [8]: 6.08 µM
GI50 [9]: 3.34 µM
TGI [9]: 11.7 µM
GI50 [10]: 3.36 µM
TGI [10]: 68.3 µM
GI50 [11]: 3.75 µM
TGI [11]: 14.9 µM
GI50 [12]: 2.1 µM
TGI [12]: 5.81 µM
GI50 [13]: 10.3 µM
TGI [13]: 27.2 µM
GI50 [14]: 6.13 µM
TGI [14]: 29.8 µM
GI50 [15]: 3.67 µM
TGI [15]: 15.7 µM
GI50 [16]: 13.4 µM
TGI [16]: 26.5 µM
GI50 [17]: 5.76 µM
TGI [17]: 21.7 µM
GI50 [18]: 4.12 µM
TGI [18]: 15.1 µM
GI50 [19]: 2.05 µM
TGI [19]: 6.71 µM
GI50 [20]: 3.2 µM
TGI [20]: 12 µM
GI50 [21]: 16.4 µM
TGI [21]: 31.4 µM
GI50 [22]: 6.59 µM
TGI [22]: 19.6 µM
GI50 [23]: 2.22 µM
TGI [23]: 5.97 µM
GI50 [24]: 3.41 µM
TGI [24]: 15.7 µM
GI50 [25]: 5 µM
TGI [25]: 21.8 µM
GI50 [26]: 2.66 µM
TGI [26]: 7.46 µM
GI50 [27]: 3.24 µM
TGI [27]: 13 µM
GI50 [28]: 3.91 µM
TGI [28]: 15.6 µM
GI50 [29]: 2.7 µM
TGI [29]: 11.6 µM
GI50 [30]: 3.07 µM
TGI [30]: 20.7 µM
